Tested on: hematopoietic stem cells (HSCs)
Test: HSC formation in zebrafish embryos (runx1, c-myb expression), with heat-shock inducible wnt modulators
Type: in vivo
Experimental: The functional consequences of the PGE2/wnt interaction in HSC formation during embryonic development were analyzed by examining the expression of the HSC markers runx1 and c-myb. Heat shock induction of a canonical wnt ligand, wnt8, at ten somites led to enhanced HSC formation at 36 hours post fertilization (hpf; 47/54). When wnt8 induction was followed by exposure to indomethacin (10 μM, 16-36 hpf) HSC formation was reduced to or below wild-type levels ( 43/46).
Inducible negative regulators of wnt activity were used in combination with dmPGE2 treatment to functionally localize the interaction between the PG and wnt pathways. Dkk1 antagonizes the wnt pathway at the level of membrane binding and the initiation of the wnt signaling cascade. Dkk induction in hs:dkk1 transgenic embryos inhibited HSC development ( 34/49). Exposure to exogenous dmPGE2 rescued the dkk1-mediated effect on HSC formation ( 28/51, 10 μM, 16-36 hpf). Axin is a central component of the β-catenin destruction complex and thus a negative regulator of the wnt signaling cascade in the cytosolic compartment. […] Similarly, a dominant-negative form of the β-catenin transcriptional co-activator TCF abolished HSC formation ( 60/62), and no rescue was affected via dmPGE2 exposure.
The wnt pathway can actively enhance HSC proliferation through signaling from the HSC niche as well as within HSCs themselves. PGE2 regulates HSC formation at the level of the vascular niche as well as within the HSCs. North et al., 2007. In order to identify transcriptional programs regulated by the wnt signaling pathway, genes involved in HSC development were analyzed by qPCR.
The functional interaction of signaling processes in the zebrafish, down stream from PG, was explored by increasing camp production using forskolin and inhibiting PKA with H89. […] Furthermore, the rescue of dkk effects by dmPGE2 was eliminated by H89.
Heat shock activation/repression of wnt signaling: Embryonic heat-shock experiments were conducted at 38° C. for a duration of 20 minutes unless otherwise noted. Genotype was determined by the presence of GFP fluorescence at three hours post heat-induction, non-fluorescence (wild-type) siblings were used as controls.
In situ hybridization: Paraformaldehyde (PFA)-fixed embryos were processed for in situ hybridization using standard zebrafish protocols such as those found on the internet at, for example, ZFIN: The Zebrafish Model Organism Database (hosted by the Univ. Oregon, Eugene, Oreg.). The following RNA probes were used to detect alterations in endodermal and liver development: GFP, LFABP, sterol carrier protein, transferrin, foxA3, insulin, trypsin, and IFABP. Changes in expression compared to wild-type controls are reported as the # altered/# scored per genotype; a minimum of three independent experiments were conducted per analysis.

**Q.** Which results are given for `COc1ccc2c(c1)c(CC(=O)O)c(C)n2C(=O)c1ccc(Cl)cc1` [indomethacin]?
**A.** effects of wnt8/dkk1 induction on runx1, cmyb, flk1, ephB2 expression (qPCR) (indomethacin added to wnt8, dmPGE2 added to dkk1): could be modified; HSC formation reduced to or below wild-type levels after wnt8 induction (# altered/# scored) (wnt8 heat shock at ten somites, then 10 μM, 16-36 hpf): 43/46

From patent US10736906B2, “Method to enhance tissue regeneration” (CHILDREN'S MEDICAL CENTER CORPORATION, priority 2006, dated 2020)
